Experimental data taken from patent US20070167408A1, “NOVEL ALKYL PHOSPHOLIPID DERIVATIVES WITH REDUCED CYTOTOXICITY AND USES THEREOF” (ZENTARIS GmbH, priority 2005, published 2007).
In brackets after ≈: the same amount, converted by molar mass.

Legend:
[1] = tested on: Aspergillus fumigatus 322-384; experiment: Anti-fungal broth microdilution (MIC), fungus B; assay type: cell-based; conditions: filamentous protocol, more than 50% growth inhibition, 48 to 72 h
How it was run: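 Broth microdilution followed NCCLS M27-A for the Candida yeasts and M38-A for the Aspergillus filamentous strains, testing 64 down to 0.125 μg/ml in twofold steps against a 10^6 CFU/ml inoculum. For Aspergillus, MIC was read after 48 to 72 h at 35 °C as the concentration giving >50% visible growth inhibition.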

[2] = tested on: Plasmodium falciparum (strain K1); experiment: In vitro drug activity assay, protozoon C; assay type: cell-based; conditions: strain K1, 3[H]-hypoxanthine method
Method: (§1) In vitro activity of selected compounds of the invention against different protozoa was assessed as follows.
(§2) Plasmodium falciparum strain K1 and strain 3D7 parasites were cultured according to Trager W and Jensen J B (Science 1976, 193: 673-675). In vitro drug susceptibility assays with the test compounds were carried out according to Korsinczky M et al. (Antimicrobial agents and chemotherapy 2000, 44(8): 2100-2108) and Fivelman Q L et al. (Antimicrobial agents and chemotherapy 2004, 48(11): 4097-4102) using a ^3[H]-hypoxanthine radioisotope method. ED50 values were calculated with Msxlfit (IDBS).
(§3) The following protozoa were assessed: • A) Trypanosoma cruzi (Tulahuan-LACZ amstigotes in PEM, Lorente S O et al., Antimicrobial agents and chemotherapy 2004, 48(8): 2937-2950; Buckner et al., Infection and Immunity 1999, 67(1): 403-409; Buckner et al., Antimicrobial Agents and Chemotherapy 1996, 40(11): 2592-2597) • B) Trypanosoma brucei rhodesiense (strain STIB900, Lorente S O et al., Antimicrobial agents and chemotherapy 2004, 48(8): 2937-2950; Habtemariam S, BMC Pharmacology 2003, 3:6) • C) Plasmodium falciparum (strain K1, Korsinczky M et al., Antimicrobial agents and chemotherapy 2000, 44(8): 2100-2108; Thaitong S and Beale G H, Trans. R. Soc. Trop. Med. Hyg. 1981, 75: 271-273; Trager W and Jensen J B, Science 1976, 193: 673-675) • D) Plasmodium faiciparum (strain 3D7, Mu et al., PLoS Biology 2005, 3(10): e335)

[3] = tested on: Plasmodium faiciparum (strain 3D7); experiment: In vitro drug activity assay, protozoon D; assay type: cell-based, Plasmodium falciparum; conditions: strain 3D7, 3[H]-hypoxanthine method
Method: as §1, §2, §3

[4] = tested on: epimastigotes of Trypanosoma cruzi strain Y; experiment: In vitro activity of miltefosine and benznidazole against epimastigotes; assay type: cell-based; conditions: 72 h
Method: In vitro activity of Miltefosine and Benznidazole in the course of a combination treatment against Trypanosoma cruzi strain Y was assessed compared to the respective single treatments with miltefosine or benznidazole alone.
Miltefosine and Benznidazol were tested in vitro in combination against epimastigote forms of Trypanosoma cruzi strain Y which were isolated from a chagasic patient in Sao Paulo, Brazil and obtained from Dr. Victor Nussenzweig (Silva, L H. and Nussenzweig, V.; Folia clin. biol., 20: 191-207, 1953). This T. cruzi Y strain can also be ordered at ATCC 50832, while the ATCC strain must be re-adapted by several passages through mice in order to regain the strain's original characteristics of differentiation and virulence.
Epimastigotes were axenially cultured in brain heart infusion medium (BHI, Becton, Dickinson, Cat. No. 221812) supplemented with 10 mg of hemin per liter and 5% heat inactivated fetal calf serum (FCS) at 28° C. with shaking (˜80 rpm) up to a maximum of 10-12 passages, before the cultures were aged to obtain metacyclics that were purified on a DE-52 column (Whatman DEAE cellulose ion exchange column, Waco, Cat. No. 17050-03 or 17050-04) and injected into mice. After 2-4 weeks parasites were recovered from blood and placed back into axenic culture.
Stock solutions of Miltefosine and Benznidazol in concentrations of 10 mg/ml and 20 mg/ml dissolved in methanol were used. Stock solutions were serially diluted with a factor of 2 in BHI-FCS medium. For Benznidazol the following testing concentrations were used: 80 μg/ml, 40 μg/ml, 20 μg/ml, 10 μg/ml, 5 μg/ml and 2.5 μg/ml. The testing concentrations for Miltefosine were 20 μg/ml, 10 μg/ml, 5 μg/ml, 2.5 μg/ml, 1.25 μg/ml and 0.625 μg/ml.
2×10^6 epimastigotes were incubated in BHI-FCS medium with Miltefosine and Benznidazol in a final volume of 200 μl. After 72 h incubation at 28° C., parasite growth was determined by direct counting the number of parasites with a Neubauer chamber. The 50% inhibitory concentrations were determined by linear regression analysis.

Row | Compound | MIC, fungus B [1] [µg/mL] | ED50 (μg/mL), protozoon C [2] [µg/mL] | ED50 (μg/mL), protozoon D [3] [µg/mL] | Epimastigotes [amount/mL] ([4]; miltefosine 1.25 ug/mL) | Epimastigotes [amount/mL] ([4]; miltefosine 2.5 ug/mL)
1 | CCCCCCCCCCCCCCCCOP(=O)([O-])OCC[N+]1(C)CCCCC1 [Compound 2, Phosphoric acid hexadecyl ester 2-(1-methyl-piperidin-1-yl)-ethyl ester] | 2 (≈ 4.47 µM) | 19.36 (≈ 43.2 µM) | 2.21 (≈ 4.94 µM) |  | 
2 | CCCCCCCCCCCCCCCCOP(=O)([O-])OCC[N+](C)(C)C [miltefosine, hexadecylphosphocholine, reference compound] |  |  |  | 820.000 | 290.000
